Patent US4401604A, “Process for preparing thiosulfenamide derivatives of N-phosphonomethylglycine triesters” (Monsanto Company, priority 1981, dated 1983)

Assays:
Experiment in all cases: Post-emergence herbicidal activity, greenhouse
Type in all cases: in vivo
Sugar Beet = conditions: Table II
Procedure, shortened: (§1)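 Sow seeds/propagules in soil pans, grow in greenhouse with subirrigation to 2–3 weeks, spray foliage with compound formulated with cyclohexanone emulsifier mixture (~0.4%), return to greenhouse, then rate injury against controls about two and four weeks later.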

Johnsongrass = conditions: Table I, 4 WAT
Procedure, shortened: as §1

Velvetleaf = system: Velvetleaf
Procedure, shortened: as §1

Downy Brome = system: Downy Brome
Procedure, shortened: as §1

Sorghum = conditions: Table II
Procedure, shortened: as §1

Quackgrass = conditions: Table I, 4 WAT
Procedure, shortened: as §1

Wild Buckwheat = conditions: Table II
Procedure, shortened: as §1

Wheat = conditions: Table II
Procedure, shortened: as §1

Smartweed = system: Smartweed
Procedure, shortened: as §1

COC(=O)CN(CP(=O)(Oc1ccccc1)Oc1ccccc1)SSC(C)C [I, Glycine, N-[(diphenoxyphosphinyl)methyl]-N-[(1-methylethyl)dithio]-, methyl ester]
post-emergence herbicidal activity index (Sugar Beet; 0.056 kg/h, 2 WAT): 0 (0- 24% control)
post-emergence herbicidal activity index (Sugar Beet; 0.28 kg/h, 2 WAT): 0 (0- 24% control)
post-emergence herbicidal activity index (Sugar Beet; 1.12 kg/h, 4 WAT): 2 (50-74% control)
post-emergence herbicidal activity index (Sugar Beet; 5.6 kg/h, 4 WAT): 4 (100% control)
post-emergence herbicidal activity index (Sugar Beet; 11.2 kg/h, 4 WAT): 3 (75-99% control)
post-emergence herbicidal activity index (Johnsongrass; 5.6 kg/h): 3 (75-99% control)
post-emergence herbicidal activity index (Johnsongrass; 11.2 kg/h): 4 (100% control)
post-emergence herbicidal activity index (Velvetleaf; Table I, 5.6 kg/h, 4 WAT): 3 (75-99% control)
post-emergence herbicidal activity index (Velvetleaf; Table I, 11.2 kg/h, 4 WAT): 4 (100% control)
post-emergence herbicidal activity index (Velvetleaf; Table II, 0.056 kg/h, 2 WAT): 0 (0- 24% control)
post-emergence herbicidal activity index (Velvetleaf; Table II, 0.28 kg/h, 2 WAT): 1 (25-49% control)
post-emergence herbicidal activity index (Velvetleaf; Table II, 1.12 kg/h, 4 WAT): 2 (50-74% control)
post-emergence herbicidal activity index (Velvetleaf; Table II, 5.6 kg/h, 4 WAT): 4 (100% control)
post-emergence herbicidal activity index (Velvetleaf; Table II, 11.2 kg/h, 4 WAT): 1 (25-49% control)
post-emergence herbicidal activity index (Downy Brome; Table I, 5.6 kg/h, 4 WAT): 3 (75-99% control)
post-emergence herbicidal activity index (Downy Brome; Table I, 11.2 kg/h, 4 WAT): 3 (75-99% control)
post-emergence herbicidal activity index (Downy Brome; Table II, 0.056 kg/h, 2 WAT): 0 (0- 24% control)
post-emergence herbicidal activity index (Downy Brome; Table II, 0.28 kg/h, 2 WAT): 0 (0- 24% control)
post-emergence herbicidal activity index (Downy Brome; Table II, 1.12 kg/h, 4 WAT): 1 (25-49% control)
post-emergence herbicidal activity index (Downy Brome; Table II, 5.6 kg/h, 4 WAT): 2 (50-74% control)
post-emergence herbicidal activity index (Downy Brome; Table II, 11.2 kg/h, 4 WAT): 2 (50-74% control)
post-emergence herbicidal activity index (Sorghum; 0.056 kg/h, 2 WAT): 0 (0- 24% control)
post-emergence herbicidal activity index (Sorghum; 0.28 kg/h, 2 WAT): 0 (0- 24% control)
post-emergence herbicidal activity index (Sorghum; 1.12 kg/h, 4 WAT): 1 (25-49% control)
post-emergence herbicidal activity index (Sorghum; 5.6 kg/h, 4 WAT): 3 (75-99% control)
post-emergence herbicidal activity index (Sorghum; 11.2 kg/h, 4 WAT): 2 (50-74% control)
post-emergence herbicidal activity index (Quackgrass; 5.6 kg/h): 4 (100% control)
post-emergence herbicidal activity index (Quackgrass; 11.2 kg/h): 3 (75-99% control)
post-emergence herbicidal activity index (Wild Buckwheat; 0.056 kg/h, 2 WAT): 0 (0- 24% control)
post-emergence herbicidal activity index (Wild Buckwheat; 0.28 kg/h, 2 WAT): 0 (0- 24% control)
post-emergence herbicidal activity index (Wild Buckwheat; 1.12 kg/h, 4 WAT): 2 (50-74% control)
post-emergence herbicidal activity index (Wild Buckwheat; 5.6 kg/h, 4 WAT): 3 (75-99% control)
post-emergence herbicidal activity index (Wild Buckwheat; 11.2 kg/h, 4 WAT): 0 (0- 24% control)
post-emergence herbicidal activity index (Wheat; 0.056 kg/h, 2 WAT): 0 (0- 24% control)
post-emergence herbicidal activity index (Wheat; 0.28 kg/h, 2 WAT): 0 (0- 24% control)
post-emergence herbicidal activity index (Wheat; 1.12 kg/h, 4 WAT): 1 (25-49% control)
post-emergence herbicidal activity index (Wheat; 5.6 kg/h, 4 WAT): 3 (75-99% control)
post-emergence herbicidal activity index (Wheat; 11.2 kg/h, 4 WAT): 0 (0- 24% control)
post-emergence herbicidal activity index (Smartweed; Table I, 5.6 kg/h, 4 WAT): 4 (100% control)
post-emergence herbicidal activity index (Smartweed; Table I, 11.2 kg/h, 4 WAT): 4 (100% control)
post-emergence herbicidal activity index (Smartweed; Table II, 0.056 kg/h, 2 WAT): 0 (0- 24% control)
post-emergence herbicidal activity index (Smartweed; Table II, 0.28 kg/h, 2 WAT): 0 (0- 24% control)
post-emergence herbicidal activity index (Smartweed; Table II, 1.12 kg/h, 4 WAT): 3 (75-99% control)
post-emergence herbicidal activity index (Smartweed; Table II, 5.6 kg/h, 4 WAT): 4 (100% control)
post-emergence herbicidal activity index (Smartweed; Table II, 11.2 kg/h, 4 WAT): 3 (75-99% control)
